Reference: US9757379B2, “Inhibition of HIF-2α heterodimerization with HIF1β (ARNT)” (The Board of Regents of the University of Texas System, priority 2012, dated 2017)
Read-outs that look alike come from different tables or passages of the source.

Assays:
HIF-2α PAS-B = HIF-2α PAS-B (Homo sapiens, UniProt Q99814); assay: Isothermal titration calorimetry (ITC) on HIF-2α PAS-B;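 further: Wild-type protein (200 µM) titrated into 5-10 µM compound, heats of dilution from a compound-free titration subtracted, isotherms fit to a single-site model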
Chain of HIF-2α PAS-B (Q99814 240-350): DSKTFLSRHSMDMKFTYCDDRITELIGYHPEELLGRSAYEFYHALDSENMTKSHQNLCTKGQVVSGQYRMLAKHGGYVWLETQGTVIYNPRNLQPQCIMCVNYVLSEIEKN
Source text: ITC, as described more fully below, introduces a wild-type HIF-2α PAS-B solution into a to-be-assayed compound solution using, for example, a VP-ITC instrument (MicroCal). After subtracting heats of dilution evolved from the titrating protein, e.g., wild-type HIF-2α PAS-B, into a compound-free buffer, data were fit to a single-site binding model with, for example, MicroCal Origin® software to determine complex affinities.
The following is a general procedure describing the ITC assay Thermodynamic parameters of small molecule binding are determined using a MicroCal VP-ITC calorimeter. Solutions of HIF-2α PAS-B are extensively dialyzed against buffer (50 mM Tris (pH 7.5), 20 mM NaCl and 5 mM beta-mercaptoethanol), which is subsequently used to prepare a matched compound solution by dilution from a 50 mM compound stock in 100% DMSO. […] Each isotherm is recorded by injecting 200 μM protein (syringe) into 5-10 μM solutions of compound (cell), accounting for dilution heats by subtracting data from a control titration of 200 μM protein into a matched buffer-DMSO solution. Thermograms are fit to a single site binding model to extract equilibrium binding parameters.

[1] = molecular target: HIF-2α PAS-B*/ARNT PAS-B* heterodimer (Homo sapiens, UniProt Q99814, R247E); assay: AlphaScreen, HIF-2α PAS-B*/ARNT PAS-B* heterodimerization;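 further: GST-tagged HIF-2α PAS-B* and FLAG-tagged ARNT PAS-B* with glutathione donor and anti-FLAG acceptor beads, luminescence after 680 nm excitation, loss of signal indicating disrupted heterodimer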
Chain of HIF-2α PAS-B*/ARNT PAS-B* heterodimer (Q99814 240-350 R247E, one chain of several): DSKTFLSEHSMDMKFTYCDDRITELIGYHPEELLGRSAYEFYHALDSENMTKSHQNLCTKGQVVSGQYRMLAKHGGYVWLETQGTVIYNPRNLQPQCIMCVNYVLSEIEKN
Source text: (FIG. 8a) As shown in the cartoon schematic, interactions between GST-tagged HIF-2α (green) and FLAG-tagged ARNT (blue) PAS-B* domains recruit both donor beads (D), coated with glutathione, and acceptor beads (A), coated with anti-FLAG antibodies, to one another. Upon illumination with red (680 nm) light, donor beads will generate short-lived singlet oxygen (^1O2). Nearby (<200 nm) acceptor beads can react with ^1O2 to emit light at shorter wavelengths (top). Compounds that disrupt the complex correspondingly eliminate this signal (bottom). Compounds that non-specifically interfere with the AlphaScreen assay can be identified with a counterscreen in which the ARNT PAS-B* domain was simultaneously tagged with both the GST and FLAG tags. (FIG. 8b) The AlphaScreen signal (relative units; RU) reflecting protein-protein interactions between 25 (open triangles), 50 (open circles) or 100 (closed circles) nM HIF-2α PAS-B* increases with increasing concentrations of ARNT PAS-B*. At the highest ARNT PAS-B* concentrations, a decrease in signal reflects the hook effect. At these concentrations, protein binding to the acceptor beads has become saturated and free ARNT PAS-B* competes with the coated acceptor beads for the donor beads bound to HIF-2α PAS-B*. […] Assays were performed in triplicate and the error bars represent±SD.
Inhibition of heterodimerization of HIF-2α to HIF1β (ARNT) may be determined in an Amplified Luminescent Proximity Homogeneous Assay (AlphaScreen).
The AlphaScreen assay can be done according to the following procedures: • 1. Prepare cold binding buffer solution: 20 mM Tris-Cl (pH=7.5), 100 mM NaCl, 1 mM DTT, 0.02% Tween-20 (final concentration) and place on ice to keep temperature approximately 4° C. • 2. Prepare Protein Mix: To a 50 mL conical tube add 23 mL of cold buffer and 0.04 mL of both GST-HIF2α PASB* (100 μM) and ARNT-PASB*-Flag (100 μM). • 3. Distribute to 96 well plate: Add 60 μL of protein mix to each wells. • 4. Adding Compound: Dissolve compounds in DMSO to obtain a final concentration of 10 mM. Then create the appropriate dilutions for your particular compound in glass vials. Once all the dilutions are ready place 1 μL of compound in each well. • 5. Prepare Bead mix: In the dark room using green light only create a tube with 3.84 mL of cold buffer and 3 μL of GST Donor beads and Flag acceptor beads. • 6. Distribute Bead mix: Invert the tube a couple times before distributing 40 μL of mix to each well. • 7. Incubation: After adding beads wrap the plate in tin foil twice and remove the covered plate from dark room. Incubate the plate at room temperature while rocking gently for 4 hours. • 8. Read: After 4 hours place the uncovered plate in the plate reader. Make sure the room is relatively tree of white light when placing the plate in the machine. It is ok to have the green light on if needed. • 9. […] Flag acceptor beads should be aliquoted into small opaque tubes (20-50 μl per tube) upon arrival from the manufacturer. Place both sets of beads in 4° C. storage when not in use. • 11. Avoid expose beads to white light. • 12. Pipette beads up and down several times before adding to a tube of cold buffer solution. • 13. Amount of Beads used for Bead mix may vary from batch to batch.

VEGF = VEGF protein secretion by ELISA, 786-O cells; type: cell-based, human; settings: about 18 hours, 0.00655-20 μM
Procedure: VEGF protein secretion was measured by ELISA following incubation of cultured 786-O cells for about eighteen (18) hours with Compund (1) (FIG. 19a) or with Compound (47) (FIG. 19b).

GST-ARNT-PAS-B*-FLAG = GST-ARNT-PAS-B*-FLAG (Homo sapiens, UniProt P27540, E362R); assay: AlphaScreen control reaction with doubly tagged protein; type: biochemical; settings: single doubly tagged protein
Chain of GST-ARNT-PAS-B*-FLAG (P27540 355-470 E362R): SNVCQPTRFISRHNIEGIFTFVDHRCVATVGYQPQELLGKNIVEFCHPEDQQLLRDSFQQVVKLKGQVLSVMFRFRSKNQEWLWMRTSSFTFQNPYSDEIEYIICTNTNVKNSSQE
Source text: Upon illumination with red (680 nm) light, donor beads will generate short-lived singlet oxygen (^1O2). Nearby (<200 nm) acceptor beads can react with ^1O2 to emit light at shorter wavelengths (top). Compounds that disrupt the complex correspondingly eliminate this signal (bottom). Compounds that non-specifically interfere with the AlphaScreen assay can be identified with a counterscreen in which the ARNT PAS-B* domain was simultaneously tagged with both the GST and FLAG tags. […] At these concentrations, protein binding to the acceptor beads has become saturated and free ARNT PAS-B* competes with the coated acceptor beads for the donor beads bound to HIF-2α PAS-B*. […] Assays were performed in triplicate and the error bars represent±SD.

## O=[N+]([O-])c1c(Nc2cccc(Cl)c2)ccc2nonc12 [Compound 5, N-(3-chlorophenyl)-4-nitrobenzo[c][1,2,5]oxadiazol-5-amine]
HIF-2α PAS-B; read-out: ITC Kd
  Kd: 0.16 µM
[1]
  IC50: 0.18 µM

## Nc1c(Nc2cc(F)cc(Cl)c2)ccc2nonc12 [Compound 39]
HIF-2α PAS-B
  Kd: ~6 µM
[1]
  IC50: > 30 µM

## Fc1ccccc1[C@@H]1C[C@H](c2cccc(Br)c2)Nc2nnnn21 (racemic) [Compound 50, (+/−)-(cis)-5-(3-bromophenyl)-7-(2-fluorophenyl)-4,5,6,7-tetrahydrotetrazolo[1,5-a]pyrimidine]
HIF-2α PAS-B
  Kd: 0.76 µM
[1]
  IC50: 0.7 µM

## Clc1ccccc1[C@H]1C[C@@H](c2cccc(Br)c2)Nc2nnnn21 [Compound 52, (5S,7R)-5-(3-bromophenyl)-7-(2-chlorophenyl)-4,5,6,7-tetrahydrotetrazolo[1,5-a]pyrimidine]
HIF-2α PAS-B
  Kd: 0.337 µM
[1]
  IC50: 0.3 µM

## O=[N+]([O-])c1c(Nc2cc(F)cc(C(F)(F)F)c2)ccc2nonc12 [Compound 10, N-(3-fluoro-5-(trifluoromethyl)phenyl)-4-nitrobenzo[c][1,2,5]oxadiazol-5-amine]
HIF-2α PAS-B; read-out: ITC Kd
  Kd: 0.37 µM
[1]
  IC50: 0.43 µM

## O=[N+]([O-])c1c(NCc2ccc(F)cc2Cl)ccc2nonc12 [Compound 2, N-(2-chloro-4-fluorobenzyl)-4-nitrobenzo[c][1,2,5]oxadiazol-5-amine]
HIF-2α PAS-B; read-out: ITC Kd
  Kd: 0.5 µM
[1]
  IC50: 0.33 µM

## O=[N+]([O-])c1c(NCc2ccc(Cl)cc2)ccc2nonc12 [Compound 19]
[1]
  IC50: > 5 µM

## O=[N+]([O-])c1c(Nc2cccc(C(F)(F)F)c2)ccc2nonc12 [Compound 6, 4-nitro-N-(3-(trifluoromethyl)phenyl)benzo[c][1,2,5]oxadiazol-5-amine]
HIF-2α PAS-B; read-out: ITC Kd
  Kd: 0.64 µM
[1]
  IC50: 0.46 µM

## O=[N+]([O-])c1c(Nc2ccc(Br)c(F)c2)ccc2nonc12 [Compound 7]
HIF-2α PAS-B
  Kd: 0.22 µM
[1]
  IC50: 0.15 µM

## Brc1cccc([C@@H]2C[C@H](c3cccc(Br)c3)n3nnnc3N2)c1 [Compound 58, (5S,7R)-5,7-bis(3-bromophenyl)-4,5,6,7-tetrahydrotetrazolo[1,5-a]pyrimidine]
HIF-2α PAS-B
  Kd: 0.089 µM
[1]
  IC50: 0.1 µM

## O=[N+]([O-])c1c(Nc2cc(F)cc(F)c2)ccc2nonc12 [Compound 11, N-(3,5-difluorophenyl)-4-nitrobenzo[c][1,2,5]oxadiazol-5-amine]
HIF-2α PAS-B
  Kd: 2.1 µM
[1]
  IC50: > 1 µM

## O=[N+]([O-])c1c(NCc2cc(F)cc(Cl)c2)ccc2nonc12 [Compound 21]
HIF-2α PAS-B; read-out: ITC Kd
  Kd: 2 µM

## O=[N+]([O-])c1c(Nc2ccc(Cl)c(C(F)(F)F)c2)ccc2nonc12 [Compound 9, N-(4-chloro-3-(trifluoromethyl)phenyl)-4-nitrobenzo[c][1,2,5]oxadiazol-5-amine]
HIF-2α PAS-B
  Kd: 0.26 µM
[1]
  IC50: 0.09 µM

## Fc1cc(Br)cc([C@@H]2C[C@H](c3ccccc3)n3nnnc3N2)c1 [Compound 49, (5S,7R)-5-(3-bromo-5-fluorophenyl)-7-phenyl-4,5,6,7-tetrahydrotetrazolo[1,5-a]pyrimidine]
HIF-2α PAS-B
  Kd: 0.268 µM
[1]
  IC50: 0.35 µM

## Cc1ccc(CNc2ccc3nonc3c2[N+](=O)[O-])cc1 [Compound 18]
[1]
  IC50: > 10 µM

## Clc1cccc([C@@H]2C[C@H](c3cccc(Br)c3)Nc3nnnn32)c1 (racemic) [Compound 56, (+/−)-(cis)-5-(3-bromophenyl)-7-(3-chlorophenyl)-4,5,6,7-tetrahydrotetrazolo[1,5-a]pyrimidine]
HIF-2α PAS-B
  Kd: 0.106 µM
[1]
  IC50: 0.2 µM

## O=[N+]([O-])c1c(NCc2cc(F)ccc2C(F)(F)F)ccc2nonc12 [Compound 22]
[1]
  IC50: > 30 µM

## Fc1ccc(Cl)c(F)c1[C@@H]1C[C@H](c2cccc(Br)c2)Nc2nnnn21 (racemic) [Compound 61, (+/−)-(cis)-5-(3-bromophenyl)-7-(3-chloro-2,6-difluorophenyl)-4,5,6,7-tetrahydrotetrazolo[1,5-a]pyrimidine]
HIF-2α PAS-B
  Kd: 0.032 µM
[1]
  IC50: 0.2 µM

## O=[N+]([O-])c1c(NCc2ccccc2)ccc2nonc12 [Compound 17]
[1]
  IC50: > 5 µM

## CN(C)S(=O)(=O)c1c(Nc2cc(F)cc(Cl)c2)ccc2nonc12 [Compound 44]
HIF-2α PAS-B; read-out: ITC Kd
  Kd: 5 µM

## O=[N+]([O-])c1c(Nc2cc(F)cc(Cl)c2)ccc2[nH]cnc12 [Compound 35]
[1]
  IC50: > 5 µM

## O=[N+]([O-])c1ccccc1Nc1cc(F)cc(Cl)c1 (racemic) [Compound 33]
HIF-2α PAS-B
  Kd: 4.3 µM

## Fc1cc(Br)cc([C@@H]2C[C@H](c3cccc(Br)c3)n3nnnc3N2)c1 [Compound 47, (5S,7R)-5-(3-Bromo-5-fluorophenyl)-7-(3-bromophenyl)-4,5,6,7-tetrahydrotetrazolo[1,5-a]pyrimidine]
VEGF
  VEGF protein secretion: reduce VEGF protein secretion in a dose-dependent manner
HIF-2α PAS-B
  Kd: 0.083 µM
[1]
  IC50: 0.1 µM

## Clc1ccccc1[C@@H]1C[C@H](c2cccc(Br)c2)Nc2nnnn21 (racemic) [Compound 51, (+/−)-(cis)-5-(3-bromophenyl)-7-(2-chlorophenyl)-4,5,6,7-tetrahydrotetrazolo[1,5-a]pyrimidine]
HIF-2α PAS-B
  Kd: 0.435 µM
[1]
  IC50: 0.3 µM

## O=[N+]([O-])c1c(NCc2ccc(F)cc2C(F)(F)F)ccc2nonc12 [Compound 4, N-(4-fluoro-2-(trifluoromethyl)benzyl)-4-nitrobenzo[c][1,2,5]oxadiazol-5-amine]
HIF-2α PAS-B
  Kd: 0.52 µM
[1]
  IC50: > 30 µM

## O=[N+]([O-])c1c(NCc2cc(F)ccc2F)ccc2nonc12 [Compound 3, N-(2,5-difluorobenzyl)-4-nitrobenzo[c][1,2,5]oxadiazol-5-amine]
HIF-2α PAS-B
  Kd: > 10 µM
[1]
  IC50: > 10 µM

## Fc1c(Cl)cccc1[C@@H]1C[C@H](c2cccc(Br)c2)Nc2nnnn21 (racemic) [Compound 59, (+/−)-(cis)-5-(3-bromophenyl)-7-(3-chloro-2-fluorophenyl)-4,5,6,7-tetrahydrotetrazolo[1,5-a]pyrimidine]
HIF-2α PAS-B
  Kd: 0.042 µM
[1]
  IC50: 0.2 µM

## O=[N+]([O-])c1c(Nc2ccc(Cl)c(Cl)c2)ccc2nonc12 [Compound 12, N-(3,4-dichlorophenyl)-4-nitrobenzo[c][1,2,5]oxadiazol-5-amine]
HIF-2α PAS-B; read-out: ITC Kd
  Kd: 0.17 µM
[1]
  IC50: 0.12 µM

## O=[N+]([O-])c1c(Nc2cccc(F)c2)ccc2nonc12 [Compound 28]
HIF-2α PAS-B
  Kd: 2.1 µM

## Fc1ccc(Br)c(F)c1[C@H]1C[C@@H](c2cccc(Br)c2)Nc2nnnn21 [Compound 62, (5S,7R)-7-(3-bromo-2,6-difluorophenyl)-5-(3-bromophenyl)-4,5,6,7-tetrahydrotetrazolo[1,5-a]pyrimidine]
HIF-2α PAS-B
  Kd: 0.044 µM
[1]
  IC50: < 0.1 µM

## O=[N+]([O-])c1cccc(Nc2ccc3nonc3c2[N+](=O)[O-])c1 [Compound 27]
HIF-2α PAS-B
  Kd: 4.3 µM

## Brc1cccc([C@H]2C[C@@H](c3ccccc3I)n3nnnc3N2)c1 (racemic) [Compound 55, (+/−)-(cis)-5-(3-bromophenyl)-7-(2-iodophenyl)-4,5,6,7-tetrahydrotetrazolo[1,5-a]pyrimidine]
HIF-2α PAS-B
  Kd: 0.862 µM
[1]
  IC50: 0.6 µM

## COc1cccc(Nc2ccc3nonc3c2[N+](=O)[O-])c1 [Compound 23]
[1]
  IC50: > 10 µM

## CC(C)C[C@@H]1C[C@H](c2cccc(Br)c2)Nc2nnnn21 (racemic) [Compound 64, (+/−)-(cis)-5-(3-bromophenyl)-7-isobutyl-4,5,6,7-tetrahydrotetrazolo[1,5-a]pyrimidine]
HIF-2α PAS-B
  Kd: 0.93 µM

## O=[N+]([O-])c1c(Nc2cc(F)cc(Cl)c2)ccc2nn[nH]c12 [Compound 34]
[1]
  IC50: > 10 µM

## Fc1cc(Cl)cc(Nc2ccc3nonc3c2)c1 [Compound 38]
HIF-2α PAS-B
  Kd: ~3 µM

## CNS(=O)(=O)c1c(Nc2cc(F)cc(Cl)c2)ccc2nonc12 [Compound 43]
HIF-2α PAS-B; read-out: ITC Kd
  Kd: 5 µM

## Brc1cccc([C@H]2C[C@@H](c3ccccc3Br)n3nnnc3N2)c1 (racemic) [Compound 54, (+/−)-(cis)-7-(2-bromophenyl)-5-(3-bromophenyl)-4,5,6,7-tetrahydrotetrazolo[1,5-a]pyrimidine]
HIF-2α PAS-B
  Kd: 0.565 µM
[1]
  IC50: 0.2 µM

## Fc1c(Br)ccc(Br)c1[C@H]1C[C@@H](c2cccc(Br)c2)Nc2nnnn21 [Compound 63, (5S,7R)-5-(3-bromophenyl)-7-(3,6-dibromo-2-fluorophenyl)-4,5,6,7-tetrahydrotetrazolo[1,5-a]pyrimidine]
HIF-2α PAS-B
  Kd: 0.031 µM
[1]
  IC50: < 0.01 µM

## Clc1ccc(Br)cc1[C@H]1C[C@@H](c2cccc(Br)c2)Nc2nnnn21 [Compound 60, (5S,7R)-7-(5-bromo-2-chlorophenyl)-5-(3-bromophenyl)-4,5,6,7-tetrahydrotetrazolo[1,5-a]pyrimidine]
HIF-2α PAS-B
  Kd: 0.192 µM
[1]
  IC50: 0.4 µM

## Clc1cccc([C@H]2C[C@@H](c3cccc(Br)c3)Nc3nnnn32)c1 [Compound 57]
HIF-2α PAS-B
  Kd: 0.133 µM
[1]
  IC50: 0.15 µM

## O=[N+]([O-])c1c(Nc2cccc(Cl)c2F)ccc2nonc12 [Compound 8, N-(3-chloro-2-fluorophenyl)-4-nitrobenzo[c][1,2,5]oxadiazol-5-amine]
HIF-2α PAS-B; read-out: ITC Kd
  Kd: 1.1 µM
[1]
  IC50: 0.76 µM

## O=[N+]([O-])c1cc(Nc2ccc3nonc3c2[N+](=O)[O-])ccc1Cl [Compound 32]
GST-ARNT-PAS-B*-FLAG
  Effect on AlphaScreen signal of control reaction: No effect
HIF-2α PAS-B; read-out: ITC Kd
  Kd: 1.1 µM
[1]
  IC50: 0.2 µM
[1]; triplicate
  Effect on HIF-2α/ARNT PAS-B* heterodimerization in AlphaScreen: antagonizes HIF-2α/ARNT PAS-B* heterodimerization
